Results from patent US20160361326A1, “METHOD OF TREATING HYPERGLYCEMIA AND DIABETES AND OF INCREASING ADSORPTION AND EFFICACY OF VITAMIN D” (Board of Supervisors of Louisiana State University and …, priority 2015, published 2016).

Tests used:
THP-1 monocytes = test: L-cysteine and vitamin D supplementation in control and high-glucose treated THP-1 monocytes; format: cell-based, human
Protocol: Control cells were treated with mannitol, which is considered an osmolarity control. To investigate the role of glutathione, siRNA specific for glutamate cysteine ligase catalytic unit (the catalytic component of the enzyme) was used to knock down the enzyme and induce glutathione deficiency. Complexes of glutamate cysteine ligase catalytic unit siRNA (Santa Cruz Biotechnology) and lipofectamine (Invitrogen) were allowed to form in culture flasks in serum free media, to which cells suspended in serum free media were added. After 24 hours complete media with serum was added and the cells were then treated as described in the figures.
25-hydroxy vitamin D (calcidiol) blood test is used to determine how much vitamin D is in the body. The blood concentration of calcidiol is considered an standard indicator of vitamin D status. The kit includes polyclonal antibodies that detect total vitamin D binding protein levels. Levels of glutathione and L-cysteine were determined using HPLC. Details of immunoblotting and cell viability are similar to those given in the publication Vitamin D and 1-cysteine levels correlate positively with glutathione and negatively with insulin resistance levels in the blood of type 2 diabetic patients. Eur J Clin Nutr 68: 1148-1153, 2014 by Jain S K, Micinski D, Huning L, Kahlon G, Bass P F, and Levine SN—such described methods incorporated by reference herein. The antibodies for glutamate cysteine ligase catalytic unit (73 KD), vitamin D binding protein (52 KD), and vitamin D receptor (48 KD) were purchased from Abcam (Cambridge, Mass.).

FL83B hepatocytes = test: L-cysteine supplementation in FL83B hepatocytes treated with control and high glucose; format: cell-based, mouse
Protocol: The FL83B hepatocyte cell line was purchased from American Type Culture Collection (ATCC, Manassas, Va., USA). FL83B hepatocytes were cultured and maintained in F-12K complete medium. […] Control cells were treated with mannitol, which is considered an osmolarity control in some experiments. After 24 h, complete media with serum was added and the cells were then treated as described in the figures.
(§1) Levels of glutathione and L-cysteine were determined using HPLC. In cell culture studies, the whole cell suspension was processed for the glutathione assay. Cell viability was determined using the Alamar Blue method (Alamar Biosciences, Sacramento, Calif., USA). Details of immunoblotting are similar to those known in the art. The antibodies for vitamin D binding protein (52 KD), β-Actin (40 KD), glutamate-cysteine ligase catalytic subunit (GCLC) (75 KD), and vitamin D receptor (48 KD) were purchased from Abcam (Cambridge, Mass., USA). The intensity of each immunoblotting band was measured using the histogram tool of Adobe Photoshop CS5.
mRNA extraction and cDNA synthesis were done as described in the previous section. The following primers were used for hepatocytes: vitamin D binding protein (also called GC) (Mm04243540_m1), vitamin D receptor (Mm00437297_m1), GCLC (Mm00802655_m1), and GAPDH (Mm03302249_g1) and were purchased from Invitrogen. Sequence of oligonucleotides of primers used is given in Supporting Information Material. The relative fold change of mRNA was calculated using the relative quantification (ΔΔCT) method and then normalized to % control for representation.

[1] = system: Zucker diabetic fatty rats; test: L-cysteine supplementation in Zucker diabetic fatty rats: plasma levels of VDBP, 25(OH) vitamin D, glutathione, MCP-1, CRP; format: in vivo, rat; details: 1 mg/kg BW daily oral gavage, 8 weeks
Description: (§2) The animal protocol was approved by the institutional Animal Welfare Committee (P-15-006). All procedures performed were in accordance with the ethical standards of the institution. Male Zucker diabetic fatty rats at an age of 5 weeks and weighing about 200-220 g were purchased from Charles River (Wilmington, Mass., USA). The animals were allowed to acclimate to the environmental and handling conditions for 2 days. Computer generated randomization was used to divide rats into two groups, after which they were housed and labelled in individual cages. After overnight fasting they were weighed and tested for hyperglycemia by measuring their blood glucose concentration. Blood was collected via tail incision and the blood glucose levels were measured using an Advantage Accu-chek glucometer (Boehringer Mannheim Corp., Indianapolis, Ind., USA). One group of rats was labeled as diabetic controls and gavaged with saline alone. […] A third group included in the study, called the control group, consisted of male Sprague Dawley (SD) rats who were also gavaged daily with saline. […] Blood glucose and body weight were monitored weekly in all rats. Based on any change in their weights the L-cysteine supplementation dose was adjusted accordingly every week to maintain a similar dose per Kg BW over the entire period of the study.
(§3) All Zucker diabetic fatty rats were fed a high calorie Purina 5008 lab chow diet (Charles River, Wilmington, Mass., USA). This diet contained 3.4 IU vitamin D3 per gram diet. Sprague Dawley rats were fed a standard 8640 lab chow diet, which contained 3 IU vitamin D3 per gram diet (Harlan, Indianapolis, Ind., USA); both Zucker diabetic fatty and Sprague Dawley rats were maintained at 22 ±2° C. with 12:12-h light/dark cycles. Food intake of all rats was monitored. The control group contained six rats. There were also six rats each in the placebo and L-cysteine-supplemented diabetic rat groups. At the end of 8 weeks the rats were fasted overnight and euthanized by exposing them to halothane (2-bromo-2-chloro-1,1,1-trifluoroethane). Blood was drawn with a 191/2 gauge needle via cardiac puncture into vacutainer tubes. Aliquots of blood collected from all rats were sent to the clinical laboratory of LSUHSC-Shreveport for blood chemistry profiles, including liver and renal function and red blood cell counts. Plasma was isolated in a 4° C. centrifuge at 3000 rpm for 10 min from blood collected into EDTA tubes. Rat livers were perfused using cold saline. Once extracted, they were labeled appropriately, and stored at −80° C.
Plasma levels of 25(OH) vitamin D, […] were determined using an ELISA kit (Eagle Biosciences, Nashua, N.H., USA). Plasma vitamin D binding protein quantification was carried out using a kit purchased from Alpco (Salem, N.H., USA). The kit includes polyclonal antibodies that detect total vitamin D binding protein levels. The cytokines MCP-1 (R&D Systems Inc., Minneapolis, Minn., USA) and CRP (Alpco) were determined using the sandwich ELISA method and commercially available kits. In the cytokine assay, control samples were analyzed each time to check the variation from plate to plate on different days of analysis. […]
Levels of glutathione and L-cysteine were determined using HPLC. […] Cell viability was determined using the Alamar Blue method (Alamar Biosciences, Sacramento, Calif., USA). […] The intensity of each immunoblotting band was measured using the histogram tool of Adobe Photoshop CS5.

[2] = system: Zucker diabetic fatty rats; test: L-cysteine supplementation in Zucker diabetic fatty rats: liver protein and mRNA expression, glutathione, reactive oxygen species; format: in vivo, rat; details: 8 weeks
Description: as §2, §3
About 50 mg of liver tissue was weighed and homogenized in 1 mL TRIzol reagent (Invitrogen, Grand Island, N.Y., USA). The RNA extraction was performed according to the instructions provided. The concentration and quality of the extracted RNA were determined on a NanoDrop spectrophotometer (Thermo Scientific, Pittsburgh, Pa., USA). A High Capacity RNA-To-cDNA kit (Invitrogen) was used to synthesize cDNA. QPCR was performed using a 7900HT Real Time PCR system and software (Applied Biosystems, Grand Island, NY, USA) using the FAM-labeled primer/probe set Rn00561256_m1 for vitamin D binding protein (also called GC), Rn00690616_m1 for vitamin D receptor, Rn01754615 ml for CYP2R1, and Rn01775763_g1 for GAPDH (Invitrogen), respectively. The relative fold change of mRNA was calculated using the relative quantification (ΔΔCT) method.
as §1, with “The intensity of each immunoblotting band was measured using the histogram tool of Adobe Photoshop CS5.” left out

[3] = L-cysteine supplementation in Zucker diabetic fatty rats: body weight, plasma lipids, liver and kidney function tests; format: in vivo, rat
Description: as §2, with “rats.” for “rats. Based on any change in their weights the L-cysteine supplementation dose was adjusted accordingly every week to maintain a similar dose per Kg BW over the entire period of the study.”
as §3, with “There were also six rats each in the placebo and L-cysteine-supplemented diabetic rat groups.” left out

[4] = hepatocytes cultured with high glucose (25 mM)
[5] = vs placebo-supplemented diabetic rats
[6] = 1 mg/kg BW daily oral gavage, vs placebo
[7] = 1 mg/kg BW daily gavage for 8 weeks, mean ± SE, n=6
[8] = control and high glucose (25 mM)

Compound: N[C@@H](CS)C(=O)O [L-cysteine]
- glutathione levels (THP-1 monocytes): significant upregulation
- mRNA levels of vitamin D binding protein (FL83B hepatocytes; [4]): upregulation
- mRNA levels of vitamin D receptor (FL83B hepatocytes; [4]): upregulation
- protein expression of vitamin D binding protein (FL83B hepatocytes; [4]): upregulation
- protein expression of vitamin D receptor (FL83B hepatocytes; [4]): upregulation
- decrease in glutathione levels after high glucose treatment (FL83B hepatocytes; hepatocytes, high glucose (25 mM)): prevented
- plasma glutathione ([1]; vs placebo): increase
- blood levels of 25(OH) vitamin D [1, 5]: significantly higher
- blood levels of vitamin D binding protein [1, 5]: significantly higher
- CRP ([1]; plasma, vs placebo): decrease
- MCP-1 ([1]; plasma, vs placebo): decrease
- glutathione levels in liver [2, 6]: significantly higher
- mRNA expression of vitamin D 25-hydroxylase (CYP2R1) in liver [2, 6]: significantly higher
- mRNA expression of vitamin D binding protein in liver [2, 6]: significantly higher
- protein expression of vitamin D 25-hydroxylase (CYP2R1) in liver [2, 6]: significantly higher
- protein expression of vitamin D binding protein in liver [2, 6]: significantly higher
- reactive oxygen species levels in liver [2, 6]: significantly lower
- expression of protein for vitamin D receptor in liver ([2]; 1 mg/kg BW, higher vs placebo, p=0.17): not statistically significant
- expression of mRNA for vitamin D receptor in liver ([2]; 1 mg/kg BW, higher vs placebo, p=0.30): not statistically significant
- Body weight [3, 7]: 346 ± 6.3 g
- Triglycerides [3, 7]: 509 ± 55 mg/dL
- side effects of L-cysteine supplementation ([3]; 1 mg/kg BW daily gavage for 8 weeks, vs placebo): no negative side effects
- Calcium ([3]; rat, in vivo, 1 mg/kg): 9.9 ± 0.4 mg/dL

Compound: C=C1CC[C@H](O)C/C1=C/C=C1\CCC[C@]2(C)[C@@H]([C@H](C)CCCC(C)C)CC[C@@H]12 [vitamin D, cholecalciferol]
- vitamin D binding protein expression (VDBP/actin ratio) (THP-1 monocytes; [8]): increase
- vitamin D receptor protein expression (VDR/actin ratio) (THP-1 monocytes; [8]): increase
